Test results from publication PMC11025159 (Journal of Translational Medicine, 2024).
“And” between values parts separate entries of the source, which are not always exact repeats. Equal values may be shown once.

Tests used:
[1] = system: DHT-induced AGA mice; experiment: Hair regrowth in DHT-induced AGA mice model (topical, 28 days); type: in vivo, C57BL/6J mice; details: for H&E skin histopathology finding: Days 7, 14, 21, 28
Procedure: (§1) C57BL/6 J mice (male) were obtained from CSIR-IIIM Animal House at 7 weeks of age. We used a DHT-induced AGA mice model for this study. […] At the end of the experiment, skin samples were collected and preserved in 10% neutral buffered formalin for tissue sectioning and staining using haematoxylin and eosin (H&E). The histopathological examinations were performed under the 10× and 40× objectives of light microscope (Magnus, Mx21i).
Dorsal skin samples from C57BL/6J mice were shaved and collected for histological and molecular analyses on Days 7, 14, 21, and 28. The full-thickness skin tissue was fixed in a 10% neutral buffered formalin solution (Sigma) overnight and subsequently dehydrated for embedding in paraffin. Haematoxylin and eosin (H&E) staining was performed on the skin tissue, and digital photomicrographs were taken from the representative areas using light microscope (Magnus, Mx21i).
The quantification of anagen initiation was assessed by observing changes in the dorsal skin colour of C57BL/6 mice, a phenomenon closely linked to the onset of the anagen phase. Anagen quantification was done by employing threshold analysis on dorsal skin colouration using ImageJ. The darkening of the skin, attributed to melanogenesis, strongly correlates with the progression of anagen. This analysis is visually depicted as a heatmap using GraphPad Prism 9.5 Software.

[2] = Body weight, biochemical and haematological parameters in DHT-induced AGA mice (0.5% testosterone then topical treatment); type: in vivo, C57BL/6J mice; details: for Weight of C57BL/6J mice: individual mice; for LYMPH: unit assumed
Procedure: The experiments were performed on C57BL/6 J and Athymic nude mice (NU/J Foxn1^nu) of 6–7 weeks of age obtained from Animal House Facility, CSIR-Indian Institute of Integrative Medicine (IIIM), Jammu, India. […] The animals were provided with ad libitum feed (standard pellet diet) and autoclaved RO water throughout the study. The body weight of mice was measured after seven days before treatment.
as §1
Every two weeks during the experimental period, mice were anesthetized, and the blood samples were collected into tubes containing heparin sodium to detect the total and differential white blood cells, haemoglobin, red blood cell, platelet count, mean corpuscular haemoglobin, mean corpuscular volume, red blood cell volume, mean platelet volume, and analyzed using an automated haematology analyzer (Model: XT1800i; Make: Sysmex).
Every two weeks during the experimental period, mice and rats were anesthetized, and blood samples were collected into non-heparinized tubes and then centrifuged at 1000 rpm at 4 °C for 10 min to obtain the serum. The biochemical parameters, including total protein, aspartate aminotransferase, alanine aminotransferase, total protein, albumin, total bilirubin, direct bilirubin, glucose, total cholesterol, triglyceride, low-density lipoprotein, high-density lipoprotein, creatinine, and uric acid, were measured using an automatic biochemical analyzer (Model: EM360; Make: Erba Mannheim).

## Fc1ccc(-c2cnc3[nH]cc(-c4ccnc(NC5CC5)n4)c3c2)cc1 [MJ04]
[1]; 0.04 mg/Kg topical
  hair growth compared to controls and tofacitinib-treated mice: significantly higher and homogeneous hair growth
[1]; 0.04mg/kg
  H&E skin histopathology finding: Minimal degree of epidermal atrophy
[1]; 0.08mg/kg
  H&E skin histopathology finding: Normal epidermis with increased hair follicles
[1]; skin samples days 7, 14, 21, 28
  hair follicle phase (histopathology): at least in the anagen IIIc-IV phase
[1]; topical once a day in presence of testosterone
  entry into the anagen phase: rapid entry into the anagen phase within seven days of treatment
[1]; within 10 days of treatment
  mice displaying intense skin darkening followed by hair growth: around 90%
[2]; 0.016 mg/Kg, DAY 1, in g (unit assumed)
  Weight of C57BL/6J mice: 27.2 and 23.8 and 24.6 and 24.7 and 25.6 and 25.7 and 25.8
[2]; 0.016 mg/Kg, DAY 7
  Weight of C57BL/6J mice: 28.1 and 25.1 and 26.1 (2×) and 26.9 and 27.1 and 27.3
[2]; 0.016 mg/Kg, DAY 14, in g (unit assumed)
  Weight of C57BL/6J mice: 29.3 and 26.4 and 27.3 and 27.4 and 28.1 and 28.4 and 28.7
[2]; 0.016 mg/Kg, DAY 21, in g (unit assumed)
  Weight of C57BL/6J mice: 27.6 and 28.7 and 28.9 and 29.7 and 30.1 and 30.4
[2]; 0.016 mg/Kg, DAY 28
  Weight of C57BL/6J mice: 30.3 and 30.4 (2×) and 31.6 and 31.7
[2]; 0.04 mg/Kg, DAY 1
  Weight of C57BL/6J mice: 24.2 and 24.6 and 25.6 (2×) and 25.7 and 25.8 and 26.3 and 27.4
[2]; 0.04 mg/Kg, DAY 7, in g (unit assumed)
  Weight of C57BL/6J mice: 26.1 and 26.3 and 26.4 and 26.7 and 26.9 and 27.1 and 27.2 and 28.7
[2]; 0.04 mg/Kg, DAY 14
  Weight of C57BL/6J mice: 28.1 and 28.3 (2×) and 28.5 and 28.6 and 28.7 and 29.6
[2]; 0.04 mg/Kg, DAY 21
  Weight of C57BL/6J mice: 29.4 and 29.7 and 29.8 and 30.1 and 30.4 (2×)
[2]; 0.04 mg/Kg, DAY 28
  Weight of C57BL/6J mice: 30.3 and 31.2 (2×) and 31.3 and 31.5
[2]; 0.08 mg/Kg, DAY 1
  Weight of C57BL/6J mice: 24.8 and 25.4 (2×) and 26.4 (2×) and 24.2 and 25.6 and 25.9
[2]; 0.08 mg/Kg, DAY 7
  Weight of C57BL/6J mice: 26.7 (3×) and 25.5 and 27.3 and 27.5 and 28.37 and 25.7
[2]; 0.08 mg/Kg, DAY 14
  Weight of C57BL/6J mice: 27.6 and 28.1 (2×) and 28.4 and 27.1 and 29.3 and 27.4
[2]; 0.08 mg/Kg, DAY 21
  Weight of C57BL/6J mice: 29.4 (2×) and 29.7 and 30.1 and 30.7 and 28.6
[2]; 0.08 mg/Kg, DAY 28
  Weight of C57BL/6J mice: 30.3 and 31.2 and 31.3 (2×) and 30.2
[2]; Day 21, 0.016 mg/Kg
  ALP: 99 U/L
  ALT/SGPT: 86 U/L
  AST/SGOT: 143 U/L
  Cholesterol: 154 mg/dL
  Creatine: 0.72 mg/dL
  HCT: 48%
  HDL: 112 mg/dL
  HGB: 14 g/dL
  LDL: 103 mg/dL
  MCHC: 29 g/dL
  MCV: 50 fL
  NEUT: 25.7%
  PLT: 1105 103/μl
  RBC: 9.7 1012/l
  Total protein: 5.2 g/dL
  Triglyceride: 114 mg/dL
  Urea: 55 mg/dL
  WBC: 6.5 103/μl
  LYMPH: 73.3%
[2]; Day 21, 0.04 mg/Kg
  ALP: 121 U/L
  ALT/SGPT: 74 U/L
  AST/SGOT: 148 U/L
  Cholesterol: 138 mg/dL
  Creatine: 0.69 mg/dL
  HCT: 46%
  HDL: 111 mg/dL
  HGB: 13 g/dL
  LDL: 101 mg/dL
  MCHC: 29 g/dL
  MCV: 50 fL
  NEUT: 39.4%
  PLT: 899 103/μl
  RBC: 9.0 1012/l
  Total protein: 4.9 g/dL
  Triglyceride: 127 mg/dL
  Urea: 49 mg/dL
  WBC: 3.0 103/μl
  LYMPH: 60.3%
[2]; Day 21, 0.08 mg/Kg
  ALP: 111 U/L
  ALT/SGPT: 58 U/L
  AST/SGOT: 114 U/L
  Cholesterol: 184 mg/dL
  Creatine: 0.49 mg/dL
  HCT: 36%
  HDL: 105 mg/dL
  HGB: 10 g/dL
  LDL: 102 mg/dL
  MCHC: 28 g/dL
  MCV: 50 fL
  NEUT: 32.4%
  PLT: 424 103/μl
  RBC: 6.9 1012/l
  Total protein: 5.2 g/dL
  Triglyceride: 108 mg/dL
  Urea: 71 mg/dL
  WBC: 3.3 103/μl
  LYMPH: 63%
[2]; Day 28, 0.016 mg/Kg
  ALP: 193 U/L
  ALT/SGPT: 85 U/L
  AST/SGOT: 75 U/L
  Cholesterol: 194 mg/dL
  Creatine: 0.20 mg/dL
  HCT: 46.0%
  HDL: 94 mg/dL
  HGB: 14 g/dL
  LDL: 109 mg/dL
  MCHC: 30.0 g/dL
  MCV: 63 fL
  PLT: 1727 103/μl
  RBC: 7.4 106/μl
  Total protein: 6.3 g/dL
  Triglyceride: 132 mg/dL
  Urea: 54 mg/dL
  WBC: 7.8 103/μl
[2]; Day 28, 0.04 mg/Kg
  ALP: 243 U/L
  ALT/SGPT: 69 U/L
  AST/SGOT: 107 U/L
  Cholesterol: 165 mg/dL
  Creatine: 0.14 mg/dL
  HCT: 46.0%
  HDL: 108 mg/dL
  HGB: 14 g/dL
  LDL: 91 mg/dL
  MCHC: 30.0 g/dL
  MCV: 62.0 fL
  PLT: 1687 103/μl
  RBC: 7.5 106/μl
  Total protein: 5.8 g/dL
  Triglyceride: 122 mg/dL
  Urea: 52 mg/dL
  WBC: 7.5 103/μl
[2]; Day 28, 0.08 mg/Kg
  ALP: 189 U/L
  ALT/SGPT: 63 U/L
  AST/SGOT: 113 U/L
  Cholesterol: 194 mg/dL
  Creatine: 0.13 mg/dL
  HCT: 52.0%
  HDL: 106 mg/dL
  HGB: 15 g/dL
  LDL: 78 mg/dL
  MCHC: 29.0 g/dL
  MCV: 61.0 fL
  PLT: 1362 103/μl
  RBC: 8.6 106/μl
  Total protein: 6.2 g/dL
  Triglyceride: 174 mg/dL
  Urea: 79 mg/dL
  WBC: 7.1 103/μl
